From patent US11844791B2, “Use of antagonists and/or inverse agonists of CB1 receptors for preparing medicaments for treating fatigue post-viral fatigue syndrome” (FUNDACION HOSPITAL NACIONAL DE PARAPÉJICOS, priority 2020, dated 2023)

Columns and labels:
[1] = system: human motor system (motor cortex and spinal motor neurons); experiment: Transcranial magnetic stimulation: MEP amplitude in first dorsal interosseous muscle before and 24 hours after a single Rimonabant dose; format: in vivo; conditions: healthy subjects, 24 hours after single dose Rimonabant 20 mg; MEP at 120% RMT, FDI at rest; baseline 1.1±0.6 mV; paired T test p=0.02
Experimental: The aim of the present experiments was to use transcranial magnetic stimulation to test the effects of a single dose of 20 mg of Rimonabant on the excitability of motor cortex and of spinal motor neurons.
(§1) Neurophysiological examination was performed before and 24 hours after the administration of a single dose of 20 mg of Rimonabant.
Using transcranial magnetic stimulation (TMS), it was evaluated the thresholds for electromyographic responses in the first dorsal interosseous muscle (FDI) at rest and during voluntary contraction.
(§2) Nine healthy volunteers (mean age±S.D. 32.1±5.8 years) participated in all experiments. All the subjects gave their written informed consent.
Magnetic stimulation was performed using a high-power Magstim 200 magnetic stimulator (Magstim Co., Whitland, UK). A figure-of-eight coil with external loop diameters of 9 cm was held over the right motor cortex at the optimum scalp position to elicit motor responses in the contralateral first dorsal interosseous (FDI). The induced current flowed in a postero-anterior direction. Resting motor threshold (RMT) was defined as the minimum stimulus intensity that produced a liminal motor evoked response (about 50 μV in 50% of 10 trials) at rest. The main variables we test is the RMT and MEP amplitude before and 24 hours after the Rimonabant 20 mg. MEP amplitude was obtained at 120% RMT. […]

[2] = system: healthy volunteers; experiment: Tolerability and adverse effects of a single Rimonabant dose in healthy volunteers; format: in vivo, human; conditions: single dose 20 mg
Experimental: as §1, §2
Hitherto, three subjects experienced agitation and anxiety (this effect lasted an average of 6 hours) and one suffered for nausea (for 24 hours).

[3] = as previously described; cited from earlier work

Cc1c(C(=O)NN2CCCCC2)nn(-c2ccc(Cl)cc2Cl)c1-c1ccc(Cl)cc1 [Rimonabant, N-(piperidino-1-yl)-5-(4-chlorophenyl)-1-(2,4-dichlorophenyl)-4-methylpyrazole-3-carboxamide]
MEP amplitude (motor system excitability), mean±S.D. [1]: 2.1±1.2 mV
Average duration of agitation and anxiety ([2]; healthy volunteers): 6 h
Duration of nausea ([2]; healthy volunteers): 24 h
Effects on vigilance ([2]; healthy volunteers): moderate
Subjects who experienced agitation and anxiety ([2]; of nine healthy volunteers): three
Subjects who suffered nausea ([2]; of nine healthy volunteers): one
Blood-brain barrier penetration [3]: penetrates the blood-brain barrier
